The target of this experiment is T1, Hexokinase-4 (Homo sapiens, UniProt P35557).
T1 sequence (P35557 whole entry): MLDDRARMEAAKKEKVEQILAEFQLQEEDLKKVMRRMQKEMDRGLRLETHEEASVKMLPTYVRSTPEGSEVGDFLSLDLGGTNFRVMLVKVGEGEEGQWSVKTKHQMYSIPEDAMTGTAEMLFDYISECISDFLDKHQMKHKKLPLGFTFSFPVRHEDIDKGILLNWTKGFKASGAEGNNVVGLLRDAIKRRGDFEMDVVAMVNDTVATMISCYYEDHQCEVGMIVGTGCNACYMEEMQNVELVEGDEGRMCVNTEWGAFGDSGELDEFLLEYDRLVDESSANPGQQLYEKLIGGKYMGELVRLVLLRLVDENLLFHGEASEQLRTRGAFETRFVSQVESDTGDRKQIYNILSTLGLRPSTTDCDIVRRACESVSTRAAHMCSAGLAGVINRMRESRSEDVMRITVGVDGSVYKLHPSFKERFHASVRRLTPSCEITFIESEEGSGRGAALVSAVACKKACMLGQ
Description: Activation of recombinant human His6-tagged glucokinase by G6PDH-coupled spectrophotometry.

pEC50: −log10 of the molar value. Bounds are passed on as bounds.

As for `O=C(Nc1ncc(-c2cn(CCO)nn2)s1)[C@H](CC1CCOCC1)c1ccc(S(=O)(=O)C2CC2)cc1`, the pEC50 was 6.66.

Regarding `COC(=O)[C@H](CC(C)C)NC(=O)c1cnc(NC(=O)C(CC2CCOCC2)c2ccc(S(=O)(=O)C3CC3)cc2)s1` (mixture of isomers), the pEC50 was 5.82.

With `COC(=O)[C@@H](NC(=O)c1cnc(NC(=O)C(CC2CCOCC2)c2ccc(S(=O)(=O)C3CC3)cc2)s1)C(C)C` (mixture of isomers), the pEC50 is 5.84.

Turning to `CC(C)[C@H](NC(=O)c1cnc(NC(=O)C(CC2CCOCC2)c2ccc(S(=O)(=O)C3CC3)cc2)s1)C(=O)O` (mixture of isomers), the pEC50 was 4.95.

`CC(C)C[C@H](NC(=O)c1cnc(NC(=O)C(CC2CCOCC2)c2ccc(S(=O)(=O)C3CC3)cc2)s1)C(=O)O` (mixture of isomers): the pEC50 is under 4.70.

Consider `COC(=O)CCNC(=O)c1cnc(NC(=O)C(CC2CCOCC2)c2ccc(S(=O)(=O)C3CC3)cc2)s1` (racemic), for which the pEC50 is 6.28.

For `O=C(O)CCNC(=O)c1cnc(NC(=O)C(CC2CCOCC2)c2ccc(S(=O)(=O)C3CC3)cc2)s1` (racemic), the pEC50 was 5.74.

With `CCOC(=O)CCCn1cc(-c2cnc(NC(=O)C(CC3CCOCC3)c3ccc(S(=O)(=O)C4CC4)cc3)s2)nn1` (racemic), the pEC50 was 6.35.

With `CCOC(=O)CCn1cc(-c2cnc(NC(=O)C(CC3CCOCC3)c3ccc(S(=O)(=O)C4CC4)cc3)s2)nn1` (racemic), the pEC50 was 6.46.

Regarding `O=C(O)CCn1cc(-c2cnc(NC(=O)C(CC3CCOCC3)c3ccc(S(=O)(=O)C4CC4)cc3)s2)nn1` (racemic), the pEC50 is 5.87.

As to `CCOC(=O)Cn1cc(-c2cnc(NC(=O)C(CC3CCOCC3)c3ccc(S(=O)(=O)C4CC4)cc3)s2)nn1` (racemic), the pEC50 is 6.48.

With `CNC(=O)Cn1cc(-c2cnc(NC(=O)C(CC3CCOCC3)c3ccc(S(=O)(=O)C4CC4)cc3)s2)nn1` (racemic), the pEC50 was 6.77.

In the case of `CCNC(=O)Cn1cc(-c2cnc(NC(=O)C(CC3CCOCC3)c3ccc(S(=O)(=O)C4CC4)cc3)s2)nn1` (racemic), the pEC50 is under 4.70.

For the compound `O=C(Cn1cc(-c2cnc(NC(=O)C(CC3CCOCC3)c3ccc(S(=O)(=O)C4CC4)cc3)s2)nn1)NC1CC1` (racemic), the pEC50 is under 4.70.

For the compound `CN(C)C(=O)Cn1cc(-c2cnc(NC(=O)C(CC3CCOCC3)c3ccc(S(=O)(=O)C4CC4)cc3)s2)nn1` (racemic), the pEC50 is 6.52.

In the case of `CCN(CC)C(=O)Cn1cc(-c2cnc(NC(=O)C(CC3CCOCC3)c3ccc(S(=O)(=O)C4CC4)cc3)s2)nn1` (racemic), the pEC50 was 6.68.

Regarding `CN1CCN(C(=O)Cn2cc(-c3cnc(NC(=O)C(CC4CCOCC4)c4ccc(S(=O)(=O)C5CC5)cc4)s3)nn2)CC1` (racemic), the pEC50 was 6.10.

On to `O=C(Nc1ncc(-c2cn(CC(=O)N3CCOCC3)nn2)s1)C(CC1CCOCC1)c1ccc(S(=O)(=O)C2CC2)cc1` (racemic), for which the pEC50 was 6.19.

As to `O=C(Nc1ncc(-c2cn(CCOCc3ccccc3)nn2)s1)C(CC1CCOCC1)c1ccc(S(=O)(=O)C2CC2)cc1` (racemic), the pEC50 is 6.54.

On to `O=C(Nc1ncc(-c2cn(CCO)nn2)s1)C(CC1CCOCC1)c1ccc(S(=O)(=O)C2CC2)cc1` (racemic), for which the pEC50 was 6.74.

In general, pEC50 refers to the EC50 on a negative log10 scale, so that one unit is a factor of ten.

The record behind these values is ChEMBL document CHEMBL3217569, “N-(5-substituted thiazol-2-yl)-2-aryl-3-(tetrahydro-2H-pyran-4-yl) propanamides as glucokinase activators” (Medchemcomm, 2011).
